GI50 and TGI data for 19 compounds are collected here from PubChem BioAssay (NCI).

Holding throughout (assay): NCI anticancer screen, dose series, 48 h
Assay [1] has as its system HT29 colon.
Assay [2] concerns IGROV1 ovarian.
Assay [3] has as its system KM12 colon.
Assay [4] has as its system LOX IMVI melanoma.
Assay [5] has as its system NCI-H23 lung.
Assay [6] relates to NCI-H522 lung.
Assay [7] concerns RXF 393 renal.
The subject of assay [8] is SN12C renal.
For assay [9], the system named is UACC-257 melanoma.
For assay [10], the system named is UO-31 renal.

Values joined by “and” are separate entries in the source; they are usually repeats but may differ in a detail not shown here. Equal entries are not always repeated.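 1) Cells in 96-well plates. 2) Compound, 48 h, 5 concentrations. 3) Linear interpolation between surrounding doses. 4) Unreached endpoint = highest concentration. At the GI50, growth is halved. TGI marks complete inhibition of growth.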

On to `COc1cc(Cl)cc(-c2nn(-c3cccc(NC(=O)Nc4cc(C(F)(F)F)cc(C(F)(F)F)c4)c3)cc2-c2ccncc2)c1`, for which the GI50 was 0.443 µM in assay [1]; 0.669 µM in [2]; 0.447 µM in assay [3]; 0.513 µM in assay [4]; 0.332 µM in [5]; 0.302 µM in assay [6]. Besides, the GI50 in assay [7] is 1.38 µM; in [8], 0.427 µM; in assay [9], 0.686 µM; in [10], 0.28 µM. Besides, the TGI in [1] was 2.38 µM; in [2] it was 13.4 µM; in assay [3], 2.77 µM; in [4] it was 2.29 µM; in [5], 2.01 µM; in [6], 1.32 µM. Moreover, the TGI amounted to 4.09 µM in assay [7], 3.05 µM in assay [8], 2.68 µM in assay [9] and 1.92 µM in [10].
Take `CN1CC[C@]2(C)c3cc(O)ccc3CC3CCCC1C32C` (some centres not stated): the TGI in [1], in assay [2], in assay [3], in assay [4], in assay [5] and in [6] was more than 100 µM in each case. Further, the TGI in assay [7], in [8], in assay [9] and in assay [10] was more than 100 µM each time.
Take `COc1cc(NC(=O)CSc2nc3ccc(C)cc3c(=O)n2Cc2ccccc2)cc(OC)c1OC`: the GI50 was more than 100 µM in [1]; 32.5 µM in [2]; 29.9 µM in [3]; 55 µM in assay [4]; 8.3 µM in assay [5]; 4.63 µM in assay [6]. In addition, the GI50 in [7] is 2.24 µM; in assay [8], 25.4 µM; in assay [9], 4.86 µM; in [10], 5.97 µM. Further, the TGI is more than 100 µM in [1]; more than 100 µM in assay [2]; more than 100 µM in assay [3]; more than 100 µM in [4]; 42.3 µM in assay [5]; 47 µM in assay [6]. For the same compound, the TGI in assay [7] was 8.23 µM; in [8] it was more than 100 µM; in [9], more than 100 µM; in assay [10] it was more than 100 µM.
Take `CC(=O)OCC(=O)[C@@]12OC(C)(C)O[C@@H]1C[C@H]1[C@@H]3CC=C4C[C@@H](O)CC[C@]4(C)[C@H]3CC[C@@]12C`: the TGI in [1], in [2], in assay [3], in assay [4], in assay [5] and in assay [6] was more than 100 µM each time. Moreover, the TGI in assay [7] is 61.4 µM; in assay [8], more than 100 µM; in assay [9] it was more than 100 µM; in assay [10], more than 100 µM.
Regarding `O=C1C2C(c3ccccc3)NC(c3ccccc3)C1C(c1ccccc1)NC2c1ccccc1` (configuration not stated), the TGI in assay [1], in assay [2], in assay [3], in [4], in [5] and in assay [6] was more than 100 µM throughout. The TGI in assay [7], in assay [8], in assay [9] and in assay [10] was more than 100 µM in each case.
Turning to `COc1cccc(OCCCN)c1-c1cc(Nc2cnc(C#N)cn2)n[nH]1`, the GI50 was 0.0289 µM and 0.0238 µM in assay [1]; 0.0179 µM and 0.017 µM in assay [3]; 0.0166 µM and 0.0254 µM in [4]; 0.00479 µM and < 0.0109 µM in [5]; 0.261 µM and 0.0454 µM in [6]; 0.00496 µM in [7]. Moreover, the GI50 in assay [8] was 0.189 µM and 0.13 µM; in assay [9], 0.142 µM; in assay [10] it was 0.0279 µM and 0.0321 µM. In addition, the TGI in [1] amounted to 1.28 µM; in [2], 15.6 µM; in assay [3], 11.1 µM; in [4], 9.07 µM; in [5], 8.88 µM; in assay [6] it was 2.06 µM. Also, the TGI is 0.0616 µM and 0.156 µM in assay [7]; 10.8 µM in [8]; 13.1 µM in [9].
On to `O=c1nc(NC(c2ccccc2)(c2ccccc2)c2ccccc2)ccn1CCNCCn1ccc(NC(c2ccccc2)(c2ccccc2)c2ccccc2)nc1=O`, for which the TGI in [1] came to 24.5 µM; in [2] it was 56.2 µM; in assay [3], 11.9 µM; in assay [4], 7.86 µM; in assay [5], 26.8 µM; in [6], 21.5 µM. Also, the TGI in assay [7] is 25.6 µM; in assay [8] it was 44.1 µM; in assay [9], 23.3 µM; in assay [10], more than 100 µM.
Turning to `COc1ccc(C(=O)/C=C/c2ccc3c(c2)OCO3)c(OCc2ccccc2)c1`, the TGI in assay [1], in assay [2], in assay [3], in [4], in [5] and in [6] was more than 100 µM throughout. Moreover, the TGI in assay [7], in [8], in assay [9] and in assay [10] was more than 100 µM in each case.
For `O=C(O)C1C(C(=O)O)C23CC2(C(=O)O)C2(C(=O)O)CCC3=C3CCCC312` (configuration not stated), the TGI was found to be 44.8 µM in assay [1]; 51.6 µM in assay [2]; 88.4 µM in assay [3]; 28.1 µM in [4]; 36.4 µM in [5]; 16 µM in [6]. Also, the TGI came to 37.7 µM in assay [7], 36.4 µM in assay [8], 15.4 µM in [9] and 33.2 µM in assay [10].
For `CCC[CH2][Sn]([CH2]CCC)([CH2]CCC)[O]C(=O)c1ccc(Cl)cc1Cl`, the GI50 in [1] was 0.125 µM; in assay [2] it was 0.15 µM; in [3], 0.139 µM; in assay [4], 0.148 µM; in [5], 0.13 µM; in assay [6], 0.0784 µM. Also, the GI50 was 0.151 µM in [7], 0.145 µM in assay [8], 0.155 µM in assay [9] and 0.146 µM in assay [10]. Moreover, the TGI in [1] stood at 0.283 µM; in [2] it was 0.308 µM; in [3], 0.283 µM; in assay [4] it was 0.303 µM; in assay [5], 0.296 µM; in assay [6], 0.251 µM. The TGI in assay [7] worked out at 0.321 µM; in [8], 0.35 µM; in assay [9], 0.313 µM; in assay [10] it was 0.304 µM.
Turning to `N#CC1=C(N)Oc2c(sc3c(Br)cccc23)C1c1ccc(Br)cc1` (configuration not stated), the GI50 in assay [1] is 0.315 µM; in [2], 0.887 µM; in assay [3], 0.434 µM; in assay [4] it was 0.747 µM; in [5] it was 1.58 µM; in assay [6], 0.088 µM. Moreover, the GI50 in [7] was 1.97 µM; in assay [8] it was 2.33 µM; in [9], 1.19 µM; in assay [10], 1.95 µM. For the same compound, the TGI in assay [1] was determined as 1.21 µM; in assay [2], 12.9 µM; in assay [3], 10.2 µM; in [4], 3.95 µM; in assay [5], 13.4 µM; in assay [6], 0.534 µM. The TGI in assay [7] is 6.18 µM; in assay [8] it was 13.4 µM; in assay [9] it was 15.4 µM; in assay [10], 11.8 µM.
Regarding `O=C(O)CNS(=O)(=O)c1ccc(NC(=O)CI)cc1`, the TGI in assay [1] was 54.4 µM; in [2] it was more than 100 µM; in assay [3], 68.5 µM; in assay [4], 37.6 µM; in assay [5], 39.8 µM; in assay [6] it was 4.4 µM. Further, the TGI in [7] was 31.1 µM; in [8] it was more than 100 µM; in assay [9], more than 100 µM; in assay [10], 39.5 µM.
In the case of `OC(CNCC1CCCO1)Cn1c2ccc(Cl)cc2c2cc(Cl)ccc21` (configuration not stated), the GI50 in assay [1] is 1.94 µM; in assay [2], 2.05 µM; in [3], 1.81 µM; in assay [4], 1.65 µM; in assay [5], 1.92 µM; in assay [6], 1.89 µM. Besides, the GI50 was 1.62 µM in [7], 2.06 µM in assay [8], 1.64 µM in assay [9] and 1.61 µM in assay [10]. Further, the TGI was 3.72 µM in assay [1]; 4.03 µM in assay [2]; 3.27 µM in [3]; 3 µM in assay [4]; 3.61 µM in assay [5]; 3.6 µM in [6]. For the same compound, the TGI stood at 3.51 µM in [7], 4.58 µM in assay [8], 3.13 µM in [9] and 3.15 µM in assay [10].
On to `CCN(CC)CCn1c2ccccc2c(=O)c2c(O)ccc(O)c21`, for which the TGI in [1] is 59.8 µM; in assay [2], 66.3 µM; in assay [3] it was more than 74.8 µM; in [4], 36.3 µM; in [5], 62.2 µM; in [6], 35.9 µM. In addition, the TGI in assay [7] was determined as 35.9 µM; in assay [8], 45.6 µM; in assay [9] it was 60.6 µM; in assay [10], 63.8 µM.
As to `O=C(O)CCC(NC(=O)c1ccccc1)C(=O)O` (configuration not stated), the TGI in assay [1], in assay [2], in assay [3], in [4], in assay [5] and in assay [6] was more than 100 µM in each case. The TGI in assay [7], in assay [8], in [9] and in assay [10] was more than 100 µM throughout.
For `CC(C)COCC(CN(Cc1ccccc1)c1ccccc1)N1CCCC1` (configuration not stated), the GI50 in assay [1] is 1.46 µM; in assay [2], 3.18 µM; in assay [3], 3.54 µM; in assay [4], 2.48 µM; in assay [5] it was 2.82 µM; in assay [6] it was 1.61 µM. The GI50 was 1.76 µM in assay [7], 3.48 µM in [8], 3.28 µM in [9] and 1.96 µM in assay [10]. Further, the TGI was 4.17 µM in assay [1]; 15 µM in assay [2]; 13.7 µM in assay [3]; 8.2 µM in [4]; 14.6 µM in assay [5]; 3.35 µM in [6]. Besides, the TGI in [7] came to 6.37 µM; in assay [8] it was 15.4 µM; in assay [9], 15.3 µM; in [10] it was 13.1 µM.
In the case of `CN1C(=O)C(CC(=O)O)NC1=S` (configuration not stated), the TGI in assay [1], in assay [2], in assay [3], in assay [4], in assay [5] and in [6] was more than 100 µM throughout. In addition, the TGI in [7], in [8], in assay [9] and in assay [10] was more than 100 µM throughout.
Take `COc1cccc2c1C(=O)c1c(O)c3c(c(O)c1C2=O)C[C@@](O)(C(=O)CO)C[C@@H]3O[C@H]1C[C@H](N)[C@@H](O)[C@H](C)O1`: the TGI in [1] was determined as 7.75 µM; in [2], 21.2 µM; in assay [3], 18.2 µM; in [4], 2.57 µM; in assay [5], 0.953 µM; in assay [6], 0.89 µM. The TGI in [7] is 1.02 µM; in [8] it was 11.9 µM; in assay [9] it was 1.82 µM; in [10], 5.89 µM. For the same compound, the GI50 is 0.175 µM in [2]; 0.502 µM in assay [3]; 0.0826 µM in assay [4]; 0.122 µM in assay [5]; 0.101 µM in [6]; 0.205 µM in assay [7]. Besides, the figures for the GI50 in [8], in assay [9] and in assay [10] were 0.126 µM, 0.431 µM and 0.866 µM, respectively.
As for `O=C(c1ccccc1)C(Br)C(Br)c1cccc([N+](=O)[O-])c1` (configuration not stated), the GI50 in assay [1] was 3.45 µM; in assay [2] it was 2.75 µM; in assay [3], 1.61 µM; in assay [4], 1.36 µM; in assay [5], 2.25 µM; in [6], 1.11 µM. Also, the GI50 in assay [7] was 1.59 µM; in [8] it was 1.88 µM; in assay [9], 1.8 µM; in assay [10], 1.68 µM. The TGI in assay [1] was more than 100 µM; in [2], 7.5 µM; in assay [3] it was 3.05 µM; in [4], 2.77 µM; in [5] it was 6.45 µM; in [6], 2.57 µM. In addition, the TGI in [7] amounted to 2.94 µM; in [8], 4.21 µM; in assay [9], 3.89 µM; in assay [10] it was 3.14 µM.
